Patent US4407812A, “Etheral imidazoles and use in treatment of thromboses” (Laboratoires Chauvin-Blache, priority 1980, dated 1983)
Counter-ions that a name gives are not always drawn. Values belong to the compound of their own block, whether it stands above or below them.

Experiments:
[1] = Acute toxicity, LD50 on intraperitoneal administration to Swiss mice; conditions: mouse, in vivo, ip, mean ± 5% confidence interval
Description: (§1) In Table VI are set forth results of the determination of the LD50 of Compound A on intraperitoneal administration to Wistar rats and Swiss mice.

[2] = tested on: arachidonic acid-induced platelet aggregation; experiment: Ex vivo platelet aggregation in rabbits (arachidonic acid-induced); parameters: species or system rabbit; conditions: 5 mg/kg subcutaneous, two consecutive days, 2 hrs after second administration, arachidonic acid 2 mM
Procedure: 2.1 Ex vivo platelet aggregation in rabbits
Groups of 3 male rabbits are treated subcutaneously for two consecutive days and their plasma is taken two hrs after the second administration. Arachidonic acid-induced (2 mM) platelet aggregation is measured by the turbidimetric method according to Born.

[3] = Bleeding time (ear) in rabbits; assay type: in vivo, rabbit; conditions: 5 mg/kg subcutaneous, mean ± standard deviation
Procedure: 2.2 Bleeding time (ear) in rabbits
Groups of 3 male rabbits are treated subcutaneously with the test materials. Bleeding time (BT) is determined just before, and then 2 hours and 4 hours after their administration according to a standard procedure, by a "blind" acting experimenter.

[4] = target: T1, platelet thromboxane synthetase (Homo sapiens, UniProt P24557); experiment: Inhibition of platelet thromboxane synthetase (14C-arachidonic acid incubated with washed platelet suspension, TLC); assay type: cell-based; conditions: for IC50: 14C-arachidonic acid, 10 min, 37° C., pH 7.5, read-out: 50% inhibitory concentration (IC50)
T1 construct: endogenous in cells; host or cells: washed platelets from platelet-rich plasma of venous blood
T1 sequence (P24557 1-533): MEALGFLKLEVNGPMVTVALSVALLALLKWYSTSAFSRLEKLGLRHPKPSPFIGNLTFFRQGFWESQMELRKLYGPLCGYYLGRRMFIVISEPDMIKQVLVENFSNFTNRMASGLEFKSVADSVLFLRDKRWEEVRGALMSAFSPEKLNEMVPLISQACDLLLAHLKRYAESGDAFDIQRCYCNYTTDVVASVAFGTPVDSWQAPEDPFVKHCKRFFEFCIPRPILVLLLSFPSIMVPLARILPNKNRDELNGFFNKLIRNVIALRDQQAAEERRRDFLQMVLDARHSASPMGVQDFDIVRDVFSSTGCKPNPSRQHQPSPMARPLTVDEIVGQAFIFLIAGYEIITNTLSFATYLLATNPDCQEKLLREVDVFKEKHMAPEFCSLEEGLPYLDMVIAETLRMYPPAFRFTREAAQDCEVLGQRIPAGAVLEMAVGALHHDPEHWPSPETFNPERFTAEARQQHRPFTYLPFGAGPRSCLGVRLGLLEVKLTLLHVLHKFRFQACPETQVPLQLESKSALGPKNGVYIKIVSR
Procedure: 1.1 Inhibition of platelet thromboxane synthetase
Platelet rich plasma (PRP) is prepared by centrifugation of venous blood at 150 g×10 min. The platelets are sedimented at 2000 g×20 min. and washed in a tris-HCl buffer at pH 7.5 (15 mM) containing EDTA (1.5 mM), NaCl, (150 mM) and KCl (5 mM). The platelet pellet is then suspended in a volume of tris-HCl (50 mM) at pH 7.5 corresponding to one-half the original PRP volume. Aliquots of platelet suspension (0.5 ml) are incubated with 1 μg ^14 C-arachidonic acid (specific activity=50 mCi/mmole) as the Na salt for 10 min. at 37° C. in the presence or the absence of test material. On completion of the reaction, the incubate is cooled to 0°-4° C., made acidic and salted by addition of citric acid and NaCl and then extracted with 2×2 ml ethyl acetate. A PGE2 standard is added to the extract which, after evaporation to dryness, is submitted to a bidimensional chromatography over a thin layer of silica (Merck F 254) in the systems: (1) benzene/dioxan/acetic acid (60:30:3); (2) chloroform/methanol/acetic acid/water (90:8:1:0.8).
The PGE2 standard is visualized with phosphomolybdic acid in the hot. The radioactivity corresponding to the metabolites of arachidonic acid is measured with a Berthold scanner. […]

[5] = Acute toxicity, LD50 on intraperitoneal administration to Wistar rats; conditions: rat, in vivo, ip, mean ± 5% confidence interval
Description: as §1

[6] = tested on: thromboxane synthesis; experiment: Inhibition of thromboxane synthesis in collagen-stimulated PRP (thromboxane B2 radioimmunoassay); assay type: cell-based, human; conditions: collagen 20 μg, control 900
Procedure: (§2) 3--Inhibition of collagen-induced platelet aggregation and determination of the inhibition of thromboxane synthesis.
(§3) Venous blood sampled from volunteers is collected on sodium citrate. The platelet rich plasma (PRP) is prepared by centrifugation at 150 g×10 min.
(§4) 300 μl PRP are incubated in siliconized tubes in an aggregometer in the presence or the absence of test material dissolved in 100 μl buffer, and 20 μg collagen (Stago) are then added. Platelet aggregation is recorded by the decrease of the optical density. After 4 minutes, an acetylsalicylic acid solution (2×10^-4 M final) is added to block the synthesis of prostanoids, and thromboxane B2 is titrated in the liquid phase of the incubate by radioimmunoassay.

[7] = tested on: collagen-induced platelet aggregation; experiment: Inhibition of collagen-induced platelet aggregation; assay type: cell-based; conditions: Homo sapiens, collagen 20 μg, control 100
Procedure: as §2, §3, §4

SMILES: CCCCCC(O)/C=C/n1ccnc1 (racemic) [Compound A, (E)-1-(3-hydroxy-octen-1-yl)imidazole (racemic)]
LD50 ([1]; F): 164 ± 6 mg/kg
LD50 ([1]; M): 166 ± 7 mg/kg
Deaggregation rate ([2]; controls 5): 3 arbitrary units
Maximum aggregation ([2]; controls 40): 28 % of maximum aggregation
Aggregation rate ([2]; controls 56): 32 arbitrary units
Bleeding time, Time 2 hours ([3]; 2 hours after administration, controls 85 ± 31): 165 ± 38 s
Bleeding time, Time 4 hours ([3]; 4 hours after administration, controls 87 ± 29): 102 ± 19 s
Bleeding time, Time 0 ([3]; just before administration, controls 70 ± 23): 80 ± 27 s
IC50 ([4]; platelet suspension): 2500 nM
LD50 ([5]; F): 250 ± 16 mg/kg
LD50 ([5]; M): 270 ± 12 mg/kg

IC50 ([4]; platelet suspension): 1500 nM
SMILES: CCCCCC(/C=C/n1ccnc1)OC(=O)c1ccccc1 (stereo not drawn) [C]

SMILES: CCCCCC(/C=C/n1ccnc1)OC(=O)c1cccnc1 (stereo not drawn) [Compound B, (E)-1-(3-hydroxy-octen-1-yl)imidazole nicotinic ester dihydrochloride]
T × B2 formed ([6]; 10^-5 M): 100 pmole/ml PRP
T × B2 formed ([6]; 10^-6 M): 400 pmole/ml PRP
IC50 ([4]; platelet suspension): 1000 nM
activity at 10 µM ([7]; 10^-5 M): 7%
activity at 1 µM ([7]; 10^-6 M): 50%

IC50 ([4]; platelet suspension): 1500 nM
SMILES: CCCCCC(/C=C/n1ccnc1)OC(C)=O (stereo not drawn) [D]

IC50 ([4]; platelet suspension): 1500 nM
SMILES: CCCCCC(=O)OC(/C=C/n1ccnc1)CCCCC (stereo not drawn) [E]

IC50 ([4]; platelet suspension): 1000 nM
SMILES: CCCCCC(/C=C/n1ccnc1)OCc1ccccc1 (stereo not drawn) [F]

IC50 ([4]; platelet suspension): 1500 nM
SMILES: CCCCCC(/C=C/n1ccnc1)OCc1ccccn1 (stereo not drawn) [G, (E)-1-(3-hydroxy-octen-1-yl)imidazole 2-pyridyl methyl ether fumarate]

SMILES: c1c[nH]cn1 [Imidazole, imidazole]
inhibition of the formation of thromboxane A2 (FIG. 2) ([4]; measured by its stable degradation product): inhibits the formation of thromboxane A2
PGE2 formed concomitantly to thromboxane inhibition (FIG. 2) ([4]; platelet suspension): increasing amounts of PGE2 are formed
IC50 ([4]; platelet suspension): 50000 nM
